Test results reported in article PMC11397024, “Strategic Fluorination to Achieve a Potent, Selective, Metabolically Stable, and Orally Bioavailable Inhibitor of CSNK2” (Molecules, 2024).
Like-named read-outs stand apart in the source and are kept apart here.

Experiment: 24 h PK study in mice
Assay type: in vivo, CD-1 mice
Settings: for concentration at 24 h: mouse, CD-1 mice, below limit of quantification, read-out: plasma concentration at the 24 h time point
Description: In the 24 h PK study, male CD-1 mice (6–8 weeks old, 20–30 g) were dosed by intravenous (i.v.), oral (p.o.), or intraperitoneal (i.p.) administration of compound 2. For i.v. administration, a single dose of compound 2 (3 mg/kg) was administered as 5 mL/kg of a 0.6 mg/mL solution in DMSO/PEG-400/Water (v/v/v, 10:30:60) to six mice. For p.o. administration, a single dose of compound 2 (10 mg/kg) was administered as 10 mL/kg of a 1 mg/mL solution in DMSO/PEG-400/Water (v/v/v, 10:30:60) to six mice. For i.p. administration, a single dose of compound 2 (10 mg/kg) was administered as 10 mL/kg of a 1 mg/mL solution in DMSO/PEG-400/Water (v/v/v, 10:30:60) to six mice. The mice had free access to water and food. At 0.083, 0.25, 0.5, 1, 2, 4, 8, 12, and 24 h post dose administration, 0.03 mL of blood was collected from the dorsal metatarsal vein of three mice at each time point. Each blood sample was transferred into a plastic microcentrifuge tube containing EDTA-K2 anticoagulant and mixed well with the anticoagulant then placed on ice prior to centrifugation at 4000× g for 5 min at 4 °C to obtain plasma. The samples were stored in a freezer at −75 ± 15 °C prior to analysis. At 12 h post dose administration and 24 h post dose administration, three mice were anesthetized using increasing concentrations of CO2, and lung samples were collected. Lung samples were quickly frozen in an ice box and stored at −75 ± 15 °C. Prior to analysis, all lung samples were weighed and homogenized with phosphate-buffered saline (PBS) in a lung weight (g)/buffer volume (mL) ratio of 1:3. The final concentration of the compound was calculated by multiplying the detected concentration by a dilution factor of four.
Concentrations of the test compound in the plasma samples were determined using a Prominence LC-MS/MS system with a DGU-20A5R(C) degasser, LC-30AD pump, CBM-20A system controller, SIL-20AC HT autosampler; Rack changer II, HALO 90A ES-CN (2.7 μm, 2.1 × 50 mm) column, and AB Sciex Triple Quan 5500 LC/MS/MS instrument. The mobile phase was 5–95% MeCN in H2O, with 0.1% formic acid. The desired serial concentrations of working solutions were achieved by diluting the stock solution of the analyte with 50% acetonitrile in water. A series of 10 µL working solutions […] were added to 10 μL of blank plasma or lung homogenate to achieve calibration standards of 0.5, 1, 2, 5, 10, 50, 100, 500, 1000 ng/mL in a total volume of 20 μL. A total of 5 quality control samples at 1 ng/mL, 2 ng/mL, 5 ng/mL, 100 ng/mL, and 800 ng/mL were prepared independently of those used for the calibration curves in the same manner. A 20 μL standard, 20 μL QC sample, and 20 μL of an unknown sample (10 µL plasma or lung homogenate with 10 µL blank solution) were added to 200 μL of acetonitrile containing internal standard mixture for precipitating protein. Then, the samples were vortexed for 30 s. After centrifugation at 4 °C and 4000 rpm for 15 min, the supernatant was diluted with ultrapure water at a ratio of 1:2 (v/v, 1:2), then 20 µL of diluted supernatant was injected into the LC/MS/MS system for quantitative analysis. PK parameters were calculated from the mean plasma concentration versus time using a noncompartmental model in WinNonlin Phoenix version 8.3.

[1] = male, ip, CD-1 mouse plasma, 10 mg/kg i.p.
[2] = male, iv, CD-1 mouse plasma, 3 mg/kg i.v.
[3] = male, po, CD-1 mouse plasma, 10 mg/kg p.o.

Which results are given for `CCC(=O)Nc1cc(Nc2cc(NC3CC3)n3ncc(C#N)c3n2)c(F)cc1N1CCC[C@H](NC)C1` [Compound 2, (S)-N-(5-((3-cyano-7-(cyclopropylamino)pyrazolo[1,5-a]pyrimidin-5-yl)amino)-4-fluoro-2-(3-(methylamino)piperidin-1-yl)phenyl)propionamide]?
AUC(0-t) [1]: 10.1 µM·h; Cmax [1]: 2650 nM; Tmax [1]: 0.5 h; half-life [1]: 150 min; AUC(0-t) [2]: 1.87 µM·h; half-life [2]: 114 min; Vd (male, iv, CD-1 mouse plasma, 3 mg/kg i.v., read-out: Vdss): 3.5 L/kg; concentration at 24 h (male, plasma, iv, 3 mg/kg i.v.): < 1.02 nM; concentration at 24 h (male, plasma, po, 10 mg/kg p.o.): < 1.02 nM; bioavailability (male, plasma, po, CD-1 mouse, 10 mg/kg p.o.): 52%; AUC(0-t) [3]: 3.13 µM·h; Cmax [3]: 563 nM; Tmax [3]: 2.7 h; half-life [3]: 126 min; lung concentrations (mice, 12 and 24 h post dose administration): accumulated in the lungs
